Test results as given in BigSolDB 2.1.

Clc1ncnc2nc[nH]c12
solubility (mole fraction)
Settings	283.15 K	288.15 K	293.15 K	298.15 K	303.15 K	308.15 K	313.15 K	318.15 K	323.15 K	328.15 K
in DMAc	0.0175	0.0217	0.0267	0.0334	0.0411	0.0504	0.061	0.074	0.0893	0.107
in DMF	0.0555	0.0645	0.075	0.0871	0.0995	0.114	0.129	0.147	0.165	0.186
in ethanol	0.0087	0.0103	0.0122	0.0144	0.0168	0.0195	0.0226	0.026	0.0296	0.0338
in methanol	0.0112	0.0132	0.0153	0.0178	0.0204	0.0234	0.0268	0.0304	0.0345	0.0389
in water	0.00051	0.000555	0.000601	0.000658	0.000709	0.000761	0.000815	0.000873	0.000935	0.000994
